According to ChEMBL document CHEMBL1126588 (J Med Chem, 1993):
pKi: −log10 of the molar value. Where a SMILES comes first, the peptide text is derived from it. [ ]: non-standard residue; d: D form. Ahx = NCCCCCC(=O)O

Assays:
[1] = molecular target: T1, Neuropeptide Y receptor type 1 (Homo sapiens, UniProt P25929); test: Tested against neuropeptide Y1 receptors using SK-N-MC human neuroblastoma cells; format: cell-based
T1 sequence (P25929 whole entry): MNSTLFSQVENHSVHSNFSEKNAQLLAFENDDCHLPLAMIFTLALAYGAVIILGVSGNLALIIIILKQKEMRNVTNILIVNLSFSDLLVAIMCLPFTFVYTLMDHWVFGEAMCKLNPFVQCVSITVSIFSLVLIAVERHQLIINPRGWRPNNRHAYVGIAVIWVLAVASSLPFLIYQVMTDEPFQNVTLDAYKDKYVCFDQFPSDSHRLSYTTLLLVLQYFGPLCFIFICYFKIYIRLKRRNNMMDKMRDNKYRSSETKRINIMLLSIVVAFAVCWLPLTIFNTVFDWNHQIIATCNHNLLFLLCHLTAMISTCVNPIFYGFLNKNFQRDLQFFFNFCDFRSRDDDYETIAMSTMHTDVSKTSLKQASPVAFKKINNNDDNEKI

[2] = molecular target: T2, Neuropeptide Y receptor type 2 (Homo sapiens, UniProt P49146); test: Tested against neuropeptide Y2 receptors using SK-N-BE2 human neuroblastoma cells
T2 sequence (P49146 whole entry): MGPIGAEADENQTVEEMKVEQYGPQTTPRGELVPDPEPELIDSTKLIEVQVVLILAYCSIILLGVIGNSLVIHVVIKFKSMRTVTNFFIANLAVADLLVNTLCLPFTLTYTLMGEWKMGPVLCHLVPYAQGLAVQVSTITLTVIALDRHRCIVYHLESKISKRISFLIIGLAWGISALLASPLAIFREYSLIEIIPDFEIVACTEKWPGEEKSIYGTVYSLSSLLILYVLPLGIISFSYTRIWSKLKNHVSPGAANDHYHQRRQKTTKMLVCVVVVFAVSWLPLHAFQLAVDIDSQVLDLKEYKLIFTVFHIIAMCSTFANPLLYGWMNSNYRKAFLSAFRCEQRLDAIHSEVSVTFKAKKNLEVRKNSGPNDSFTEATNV

| pKi ([1]; sk-n-mc) | pKi [2] | pKi [1] | Molecule |
| --- | --- | --- | --- |
| 6.64 | 8.96 |  | CC[C@H](C)[C@H](NC(=O)[C@H](CC(C)C)NC(=O)[C@H](CC(N)=O)NC(=O)[C@@H](NC(=O)[C@H]1CNC(=O)CC[C@@H](NC(=O)[C@@H](N)Cc2ccc(O)cc2)C(=O)N[C@@H](CO)C(=O)N[C@@H](CCCCN)C(=O)N2CCC[C@H]2C(=O)N[C@H](C)C(=O)N[C@@H](CCCN=C(N)N)C(=O)N[C@@H](Cc2c[nH]cn2)C(=O)N1)[C@@H](C)CC)C(=O)N[C@H](C(=O)N[C@@H](CCCN=C(N)N)C(=O)N[C@@H](CCC(N)=O)C(=O)N[C@@H](CCCN=C(N)N)C(=O)N[C@@H](Cc1ccc(O)cc1)C(N)=O)[C@@H](C)O |
| < 6.00 | 9.52 |  | CC[C@H](C)[C@@H]1NC(=O)[C@H](CC(C)C)NC(=O)[C@H](CC(N)=O)NC(=O)[C@@H](NC(=O)[C@H]2CNC(=O)CC[C@H](NC(=O)[C@@H](N)Cc3ccc(O)cc3)C(=O)N[C@@H](CO)C(=O)N[C@@H](CCCCN)C(=O)N3CCC[C@H]3C(=O)N[C@H](C)C(=O)N[C@@H](CCCN=C(N)N)C(=O)N[C@@H](Cc3c[nH]cn3)C(=O)N2)CCCCNC(=O)CC[C@@H](C(=O)N[C@@H](CCCN=C(N)N)C(=O)N[C@@H](CCC(N)=O)C(=O)N[C@@H](CCCN=C(N)N)C(=O)N[C@@H](Cc2ccc(O)cc2)C(N)=O)NC1=O |
|  | 9.00 | 6.58 | CC[C@H](C)[C@H](NC(=O)[C@H](Cc1ccc(O)cc1)NC(=O)[C@H](Cc1cnc[nH]1)NC(=O)[C@H](CCCNC(=N)N)NC(=O)CCCCCNC(=O)[C@H](CCCCN)NC(=O)[C@H](CO)NC(=O)[C@@H]1CCCN1C(=O)[C@@H](N)Cc1ccc(O)cc1)C(=O)N[C@@H](CC(N)=O)C(=O)N[C@@H](CC(C)C)C(=O)N[C@H](C(=O)N[C@H](C(=O)N[C@@H](CCCNC(=N)N)C(=O)N[C@@H](CCC(N)=O)C(=O)N[C@@H](CCCNC(=N)N)C(=O)N[C@@H](Cc1ccc(O)cc1)C(=O)O)[C@@H](C)O)[C@@H](C)CC (H-YPSK[Ahx]RHYINLITRQRY-OH) |
|  | 9.30 | < 6.00 | CC[C@H](C)[C@H](NC(=O)[C@H](CC(C)C)NC(=O)[C@H](CC(N)=O)NC(=O)[C@@H](NC(=O)[C@H]1CCCCNC(=O)C[C@H](NC(=O)[C@@H](N)Cc2ccc(O)cc2)C(=O)N[C@@H](CO)C(=O)N[C@@H](CCCCN)C(=O)N2CCC[C@H]2C(=O)N[C@H](C)C(=O)N[C@@H](CCCNC(=N)N)C(=O)N[C@@H](Cc2cnc[nH]2)C(=O)N1)[C@@H](C)CC)C(=O)N[C@H](C(=O)N[C@@H](CCCNC(=N)N)C(=O)N[C@@H](CCC(N)=O)C(=O)N[C@@H](CCCNC(=N)N)C(=O)N[C@@H](Cc1ccc(O)cc1)C(=O)O)[C@@H](C)O |
| < 6.00 | 9.52 |  | CC[C@H](C)[C@H](NC(=O)[C@H](CC(C)C)NC(=O)[C@H](CC(N)=O)NC(=O)[C@@H](NC(=O)[C@H]1CNC(=O)CC[C@H](NC(=O)[C@@H](N)Cc2ccc(O)cc2)C(=O)N[C@@H](CO)C(=O)N[C@@H](CCCCN)C(=O)N2CCC[C@H]2C(=O)N[C@H](C)C(=O)N[C@@H](CCCN=C(N)N)C(=O)N[C@@H](Cc2c[nH]cn2)C(=O)N1)[C@@H](C)CC)C(=O)N[C@H](C(=O)N[C@@H](CCCN=C(N)N)C(=O)N[C@@H](CCC(N)=O)C(=O)N[C@@H](CCCN=C(N)N)C(=O)N[C@@H](Cc1ccc(O)cc1)C(N)=O)[C@@H](C)O |
| 6.66 | 8.64 |  | CC[C@H](C)[C@H](NC(=O)[C@H](CC(C)C)NC(=O)[C@H](CC(N)=O)NC(=O)[C@@H](NC(=O)[C@H]1CNC(=O)CC[C@H](NC(=O)[C@@H](N)Cc2ccc(O)cc2)C(=O)N[C@@H](CO)C(=O)N[C@@H](CCCCN)C(=O)NCCCCCC(=O)N[C@@H](CCCN=C(N)N)C(=O)N[C@@H](Cc2c[nH]cn2)C(=O)N1)[C@@H](C)CC)C(=O)N[C@H](C(=O)N[C@@H](CCCN=C(N)N)C(=O)N[C@@H](CCC(N)=O)C(=O)N[C@@H](CCCN=C(N)N)C(=O)N[C@@H](Cc1ccc(O)cc1)C(N)=O)[C@@H](C)O |
| < 6.00 | 8.82 |  | CC[C@H](C)[C@H](NC(=O)[C@H](CC(C)C)NC(=O)[C@H](CC(N)=O)NC(=O)[C@@H](NC(=O)[C@H]1CNC(=O)C[C@H](NC(=O)[C@@H](N)Cc2ccc(O)cc2)C(=O)N[C@@H](CO)C(=O)N[C@@H](CCCCN)C(=O)N2CCC[C@H]2C(=O)N[C@H](C)C(=O)N[C@@H](CCCNC(=N)N)C(=O)N[C@@H](Cc2c[nH]cn2)C(=O)N1)[C@@H](C)CC)C(=O)N[C@H](C(=O)N[C@@H](CCCNC(=N)N)C(=O)N[C@@H](CCC(N)=O)C(=O)N[C@@H](CCCNC(=N)N)C(=O)N[C@@H](Cc1ccc(O)cc1)C(=O)O)[C@@H](C)O |
|  | 8.51 |  | H-YPSKPGRHYINLITRQRY-OH |
|  | 9.05 | 6.54 | CC[C@H](C)[C@H](NC(=O)[C@H](Cc1ccc(O)cc1)NC(=O)[C@H](Cc1cnc[nH]1)NC(=O)[C@H](CCCNC(=N)N)NC(=O)[C@@H](C)NC(=O)[C@@H]1CCCN1C(=O)[C@H](CCCCN)NC(=O)[C@H](CO)NC(=O)[C@@H]1CCCN1C(=O)[C@@H](N)Cc1ccc(O)cc1)C(=O)N[C@@H](CC(N)=O)C(=O)N[C@@H](CC(C)C)C(=O)N[C@H](C(=O)N[C@H](C(=O)N[C@@H](CCCNC(=N)N)C(=O)N[C@@H](CCC(N)=O)C(=O)N[C@@H](CCCNC(=N)N)C(=O)N[C@@H](Cc1ccc(O)cc1)C(=O)O)[C@@H](C)O)[C@@H](C)CC |
| 6.89 | 9.52 |  | CC[C@H](C)[C@H](NC(=O)[C@H](CC(C)C)NC(=O)[C@H](CC(N)=O)NC(=O)[C@@H](NC(=O)[C@H]1CNC(=O)CC[C@H](NC(=O)[C@@H](N)Cc2ccc(O)cc2)C(=O)N[C@@H](CO)C(=O)N[C@@H](CCCCN)C(=O)N2CCC[C@H]2C(=O)NCC(=O)N[C@@H](CCCN=C(N)N)C(=O)N[C@@H](Cc2c[nH]cn2)C(=O)N1)[C@@H](C)CC)C(=O)N[C@H](C(=O)N[C@@H](CCCN=C(N)N)C(=O)N[C@@H](CCC(N)=O)C(=O)N[C@@H](CCCN=C(N)N)C(=O)N[C@@H](Cc1ccc(O)cc1)C(N)=O)[C@@H](C)O |
|  | 9.30 | < 6.00 | CC[C@H](C)[C@@H]1NC(=O)[C@H](CC(C)C)NC(=O)[C@H](CC(N)=O)NC(=O)[C@@H](NC(=O)[C@H](Cc2ccc(O)cc2)NC(=O)[C@H](Cc2cnc[nH]2)NC(=O)[C@H](CCCNC(=N)N)NC(=O)[C@@H](C)NC(=O)[C@@H]2CCCN2C(=O)[C@H](CCCCN)NC(=O)[C@H](CO)NC(=O)[C@@H]2CCCN2C(=O)[C@@H](N)Cc2ccc(O)cc2)CCCCNC(=O)CC[C@@H](C(=O)N[C@@H](CCCNC(=N)N)C(=O)N[C@@H](CCC(N)=O)C(=O)N[C@@H](CCCNC(=N)N)C(=O)N[C@@H](Cc2ccc(O)cc2)C(=O)O)NC1=O |

| Molecule | pKi ([1]; sk-n-mc) | pKi [2] | pKi [1] |
| --- | --- | --- | --- |
| CC[C@H](C)[C@H](NC(=O)[C@H](Cc1ccc(O)cc1)NC(=O)[C@H](Cc1c[nH]cn1)NC(=O)[C@H](CCCN=C(N)N)NC(=O)[C@H](CC(C)C)NC(=O)[C@H](C)NC(=O)[C@H](CO)NC(=O)[C@H](Cc1ccc(O)cc1)NC(=O)[C@H](Cc1ccc(O)cc1)NC(=O)[C@H](CCCN=C(N)N)NC(=O)[C@H](C)NC(=O)[C@H](CC(C)C)NC(=O)[C@H](CC(=O)O)NC(=O)[C@H](CCC(=O)O)NC(=O)[C@H](C)NC(=O)[C@@H]1CCCN1)C(=O)N[C@@H](CC(N)=O)C(=O)N[C@@H](CC(C)C)C(=O)N[C@H](C(=O)N[C@H](C(=O)N[C@@H](CCCN=C(N)N)C(=O)N[C@@H](CCC(N)=O)C(=O)N[C@@H](CCCN=C(N)N)C(=O)N[C@@H](Cc1ccc(O)cc1)C(=O)O)[C@@H](C)O)[C@@H](C)CC |  | 9.10 |  |
